Data reported in PMC12703741, “Light-Activated Metal-Dependent Protein Degradation: A Heterobifunctional Ruthenium(II) Photosensitizer Targeting New Delhi Metallo-β-lactamase 1” (Journal of the American Chemical Society, 2025).
Where “and” joins values, the source holds several entries; their conditions need not be identical. Equal values may be shown once. Entries after “also recorded” stand apart in the source; their conditions may differ. Read-outs that look alike come from different tables or passages of the source.

Legend:
E. coli NDM-1 [1] = details: 320 μM, 1 h
Procedure: (§1) In parallel, a control set was incubated without compounds for 50 min, followed by incubation with 75 μM meropenem trihydrate for 10 min. Cells were then pelleted, washed, resuspended in water, lysed, and clarified before LC-MS analysis.
(§2) 1.12 LC-MS accumulation assay
(§3) 1.12.1 Bacterial Strains and Growth Conditions:
(§4) Accumulation assay was performed two E. coli K-12 MG1655 strains transfected with pSU18 vector containing NDM-1 expression or an empty vector control. Cell growth was performed in Luria-Bertani (LB) broth (NaCl 10g/L, K2HPO4 6.3 g/L, KH2PO4 1.8 g/L, sodium citrate […]
(§5) 1.12.2 Preparation of Accumulation Assay Samples for LC-MS Analysis:
(§6) Assay was adapted from the work of Geddes et al. and Widya et al.9–11 E. coli MG1655 pSU18 NDM-1 and pSU18 Empty were grown from single colonies at 37 °C with aeration, while shaking at 180 rpm for 18 hours. The overnight suspensions were subcultured (1:100) in fresh LB and incubated to yield an OD600 of 0.55-0.60. The were harvested and pelleted at 3500 × g for 15 minutes at 4 °C. The pellets were washed with Meuller -Hinton II (MHII) broth and pelleted again under the same conditions. The pellets were resuspended in a n adjusted volume of fresh MHII to achieve an OD 600 ≈ 10.0. Shielded from ambient light, cells were incubated with 320 μM of metal complex for 1 hour while shaking at 180 rpm. Separately, another set of cells was incubated under identical conditions without any added metal complex. Cells […]
(§7) incubated with metal complex were maintained incubating under the same conditions for an additional 10 minutes, while the second set of cells was incubated with 75 μM of meropenem trihydrate for 10 minutes. After treatment, 10 μL of each cell suspension was taken and dilution 1:10 PBSA for OD600 viability analysis. A 150 μL aliquot of each cell suspension was layered onto 150 μL of cold silicone oil mixture (1:9, v/v AR20:High temperature silicone oil) and centrifuged at 3500 × g for 1 hour at 4 °C. The aqu eous and oil supernatant were carefully aspirated to isolate the cell pellets, which were resuspended in 50 μL of water and transferred to a fresh microplate. For lysis, a 1:1 (v/v) mixture of acetonitrile and methanol was added to each sample, and the sam ples were freeze thawed at -80 °C for approximately 18 hours.
(§8) Thawed samples were clarified by two rounds of centrifugation at 3500 × g for 1 hour at 4 °C, […]
(§9) External calibration curves were prepared by mixing compound at increasing concentration with extracted cell lysate (prepared in parallel to analyte containing samples) in concentrations […]
(§10) nM were also prepared to assess quantitative accuracy. Samples were submitted to LCMS analysis as biological triplicate using a single calibration curve. […]
(§11) was spiked into each calibration and analyte sampl e as an internal standard.

E. coli empty [2] = details: 320 μM, 1 h
Procedure: as §1, §2, §3, §4, §5, §6, §7, §8, §9, §10, §11

NDM-1 [3] = biological target: T1, NDM-1 (Klebsiella pneumoniae, UniProt C7C422); details: for Effect on melting temperature of NDM-1: in words
T1 sequence (C7C422 31-270 limits assumed): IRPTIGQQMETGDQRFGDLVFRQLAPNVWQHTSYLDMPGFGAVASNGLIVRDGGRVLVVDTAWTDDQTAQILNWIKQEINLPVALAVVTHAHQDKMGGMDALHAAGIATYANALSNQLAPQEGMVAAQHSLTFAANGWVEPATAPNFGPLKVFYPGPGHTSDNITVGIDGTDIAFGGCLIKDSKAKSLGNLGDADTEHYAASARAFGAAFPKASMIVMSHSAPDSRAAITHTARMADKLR
Procedure: (§12) 1.4.1 Differential Scanning Fluorimetry (DSF)
(§13) DSF was performed using the Applied Biosystems QuantStudio 5 thermal cycler (Thermo
(§14) Fisher Scientific). Results were analysed and Tm determined with the Applied Biosystems
(§15) Protein Thermal Shift Software v1.4 and Tm values determined by the software. DSF was
(§16) conducted in sealed MicroAmp Optical 384-Well Reaction Plates (Thermo Fisher Scientific).
(§17) at a temperature ramp rate of 0.03 °C/s. For compound-protein interaction studies, a final
(§18) containing 5X SYPRO Orange (Thermo Fisher Scientific), 50 mM HEPES and 5%(v/v)
(§19) DMSO-d6. The final reaction volume was 20 µL per well. All DMSO compound stocks used
(§20) for DSF experiments were freshly prepared from solid stocks. All DSF measurements were
(§21) carried out in triplicate and the Tm reported is the mean value and the error is the standard
(§22) deviation. For all compounds tested, a no protein control run was included to see potential
(§23) changes in fluorescence resulting from a compound-dye interaction.

NDM-1 [4] = biological target: T1, NDM-1; details: 450 nm, 20 J cm^-2
NDM-1 in E. coli NDM-1 [5] = biological target: T2, NDM-1 in E. coli NDM-1 (Klebsiella pneumoniae, UniProt C7C422); details: E. coli NDM-1, 450 nm, 60 J cm^-2
T2 sequence (C7C422 29-270 limits assumed): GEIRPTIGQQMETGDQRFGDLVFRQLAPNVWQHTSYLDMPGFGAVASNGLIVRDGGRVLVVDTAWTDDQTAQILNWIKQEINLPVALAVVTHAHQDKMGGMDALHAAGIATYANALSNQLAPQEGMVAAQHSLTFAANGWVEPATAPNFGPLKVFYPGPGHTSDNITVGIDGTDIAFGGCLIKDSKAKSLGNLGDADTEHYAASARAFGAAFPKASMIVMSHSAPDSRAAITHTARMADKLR
Procedure: (§24) shaking at 180 rpm for 18 hours. The overnight suspensions were subcultured (1:100) in fresh LB and incubated to yield an OD600 of 0.55-0.60. The were harvested and pelleted at 3500  g for 15 minutes at 4 °C. The pellets were washed with PBS and pelleted again under the same
(§25) conditions. The bacteria were then stored as pellets at 4 C until required for the assay and to
(§26) be used within 5 hours. To prepare the bacteria fo r the assay, a pellet was resuspended in an
(§27) adjusted volume of fresh PBS to achieve an OD600 ≈ 5.0 and then kept at 4 C for 1 hr before
(§28) being used. The bacteria were then diluted to OD600 ≈ 2.0 in fresh PBS and used immediately.
(§29) inhibitor control, and one row of Bacteria Buffer B (50 µL) which served as a no-bacteria
(§30) control (providing five rows in total). Bacteria stock (OD600 ≈ 2.0, 40 µL, final concentration
(§31) of bacteria in well = OD600 ≈ 0.8) was added to each well of the first four rows, the plate was
(§32) sealed, and the samples then pre-incubated for 60 min under either ‘dark’ or ‘light’ conditions
(§33) Under ‘dark’ conditions, the plate was left sealed in a
(§34) substrate in well = 100 µM) was conducted manually and then the plate immediately resealed
(§35) substrate had been completely consumed. Method conditions are as follows: cycle time = 100

E. coli NDM-1 [6] = tested on: E. coli NDM-1
Procedure: based screening experiments were performed in biological triplicate, each replicate starting
from a new single colony inoculation. Statistical significance was determined using two-way
ANOVA followed by Sidak’s multiple comparison test, with a single pooled variance.
Concentration (MIC) assay
20% glycerol stocks of E. coli MG1655 pSU18 NDM-1 (E. coli NDM-1) and E. coli MG1655
pSU18 empty (E. coli empty) stored at -80 °C were used to streak nutrient agar plates. After
The MHBII culture growing both E. coli strains contained chloramphenicol
as an antibiotic resistance marker (2 µg/mL, equivalent to ¼ MICE. coli for chloramphenicol =
8 µg/mL). The resulting suspensions were each diluted 100 x (15 µL in 1.5 mL) in MHBII with
chloramphenicol (2 µg/mL), and the resultant suspensions were incubated to OD600 = 0.6-1.2
To generate the two-dimensional drug interaction matrix, four 96-well source plates were
prepared. In Source Plates A1-3, the three analytes were subjected to a two-fold serial dilution
across the rows (A to G), maintaining constant concentrations within each row and achieving
a vertical concentration gradient. In parallel, Source Plate B was prepared by diluting
meropenem in a two-fold series across the Columns (9 to 2), generating a horizontal
concentration gradient across the plate. Equal volumes (1 µL) from one of the source plates A
and source plate B were transferred into a 96-well assay plate to establish the checkerboard
layout with a 50X dilution into MHBII (50 μL total volume).
The prepared bacterial cells were diluted to OD600 = 0.01. Each prepared checkerboard plate
was then inoculated with 50 μL per well of bacterial culture in MHBII with ½ MIC of
chloramphenicol (100 μL total volume per well , final OD600 = 0.005). Control wells were
included to account for drug-free growth, sterility, and single-agent gradient exposures. Dark
For the light condition, the
OD600 was measured on a BMG Labtech CLARIOstar plate reader. The MIC is the first value
at which no growth is seen. All E. coli NDM-1 data were averaged from 3 biological replicates,

RAW264.7 = details: RAW
[7] = tested on: seven mammalian cell lines; details: panel of seven mammalian cell lines including HepG2
NDM-1 in E. coli NDM-1 [8] = biological target: T2, NDM-1 in E. coli NDM-1; experiment: cell-based; details: E. coli NDM-1, nitrocefin
Procedure: as §24, §25, §26, §27, §28, §29, §30, §31, §32, §33, §34, §35

NDM-1 [9] = biological target: T1, NDM-1; experiment: biochemical
Procedure: as §12, §13, §14, §15, §16, §17, §18, §19, §20, §21, §22, §23

NDM-1 [10] = biological target: T1, NDM-1; experiment: biochemical; details: recombinant NDM-1, nitrocefin
[11] = Chromatographic LogD measurement; details: reversed-phase HPLC, Eclipse Plus C18 column, pH 7.4
Procedure: ChromLogD measurements were adapted from a previously reported procedure.3 The reversed
phase HPLC measurements were measured using an Agilent 1100 Series, equipped with an
Eclipse Plus C18 column 4.6 x 50 mm, using a gradient of 50 mM ammonium acetate/CH3CN
0 – 100% over 10 min. The mobile phase was adjusted to pH = 7.4 using concentrated sodium
The retention times (log k’) of seven commercially available compounds which cover the log
D range from -0.02 to 3.18 (theophylline, 5-phenyl-1H-tetrazole, benzimidazole, colchicine,
acetophenone, indole, propiophenone, butyrophenone, and benzophenone) were calculated
using the below equation, where tR is the retention time of the compound and t0 is the column
dead time, measured by injecting uracil (0.853 min).
The average retention times (tR) of two consecutive injections of sample were used to calculate
the log k’ values, which were then used to create the standard curve (Figure S1).

HDAC1 = HDAC1 (Homo sapiens, UniProt Q13547); experiment: HDAC1 deacetylation assay (H3K9Ac, mass spectrometry); details: 100 µM compound, 3 hours, 37°C
Sequence of HDAC1 (Q13547 whole entry, species assumed): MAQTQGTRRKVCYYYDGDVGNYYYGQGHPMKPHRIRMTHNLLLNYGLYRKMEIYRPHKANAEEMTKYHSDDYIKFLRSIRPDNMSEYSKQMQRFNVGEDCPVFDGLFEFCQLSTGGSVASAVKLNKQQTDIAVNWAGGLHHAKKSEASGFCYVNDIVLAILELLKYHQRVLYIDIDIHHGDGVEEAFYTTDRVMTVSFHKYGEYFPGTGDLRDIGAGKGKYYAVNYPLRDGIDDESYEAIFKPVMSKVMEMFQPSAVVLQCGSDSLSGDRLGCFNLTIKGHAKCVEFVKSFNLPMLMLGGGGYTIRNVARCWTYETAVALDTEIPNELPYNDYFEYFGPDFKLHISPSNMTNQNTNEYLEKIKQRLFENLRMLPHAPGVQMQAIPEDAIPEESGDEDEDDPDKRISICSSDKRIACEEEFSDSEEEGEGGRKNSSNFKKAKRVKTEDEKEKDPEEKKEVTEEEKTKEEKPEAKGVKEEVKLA
Procedure: 1.7.1 HDAC1 Assay conditions:
The results of the assay were analysed using HRMS.
HDAC1 was included (-HDAC1).

NDM-1 [12] = biological target: T1, NDM-1; format: biochemical; details: mixture of NDM-1 and BSA, 0-1000 μM
Procedure: 1.8 Protein degradation via SDS-PAGE […]
were made at 10 mM in DMSO and then diluted to the appropriate concentration (1 mM – 10 µM) in 50 mM HEPES pH 7.5. The enzyme stocks (10 µM) were made up in 50 mM HEPES pH 7.5. The compound and enzyme stocks were mixed 1:1 and then pre -incubated for 10 min […]
‘light’ conditions the samples were transferred to a 96 well plate to provide irradiation. For a […]
(208 s, 96 mW cm-2). For a dose of 60 J cm-2 the plate was irradiated immediately (624 s, 96 […]
An aliquot of each sample was mixed with SDS-sample buffer (NuPAGE® LDS Sample buffer 4x) and heated to 95°C for 3 min. The samples were loaded on to the gel (NuPAGE® 4-12% Bis-tris gel) and run at 200V/125 mA for 30 min (1 gel per Gel box) or 60 min (2 gels per Gel box). SDS-PAGE gels were imaged using a Cytiva Amersham ImageQuant™ 800.
Densitometry of gel bands was measured and processed using Fiji (ImageJ).
1.8.3 BSA+NDM-1 selectivity experiment […]
nm, 20 J cm-2). Lane 1: Ladder; Lane 2: NDM-1 – no compound control (dark); Lane 3: BSA – no compound control (dark); Lane 4: NDM-1 + BSA - no compound control (dark); Lane 5: NDM-1 + BSA + 1 eq. compound (dark); Lane 6: NDM-1 + BSA + 10 eq. compound (dark); Lane 7: NDM-1 + BSA + 100 eq. compound (dark); Lane 8: NDM-1 + BSA - no compound control (light); Lane 9: NDM-1 + BSA + 1 eq. compound (light); Lane 10: NDM-1 + BSA + 10 eq. compound (light); Lane 11: NDM-1 + BSA + 100 eq. compound (light). […]
the dark (left) and under light irradiation (450 nm, 20 J cm-2).

NDM-1 [13] = biological target: T1, NDM-1
Procedure: In addition, intact mass spectrometry was performed on the samples prepared for SDS-PAGE.

E. coli empty [14] = details: dark and light samples equivalent
[15] = compound 5 μM, light 450 nm, 60 J cm^-2
[16] = compound 10 μM, light 450 nm, 60 J cm^-2
[17] = compound 20 μM, light 450 nm, 60 J cm^-2
[18] = compound 40 μM, light 450 nm, 60 J cm^-2
[19] = compound 80 μM, light 450 nm, 60 J cm^-2
[20] = compound 160 μM, light 450 nm, 60 J cm^-2
[21] = read-out: Change in melting temperature (ΔT) of NDM-1

Cl.Cl.Nc1cccc(-c2cc(C(=O)O)nc(C(=O)O)c2)c1 [N1, 4-(3-amino-phenyl) dipicolinic acid]
Accumulation (E. coli NDM-1 [1]): 731 nM/OD600
Accumulation (E. coli empty [2]): 609 nM/OD600
Effect on melting temperature of NDM-1 (NDM-1 [3]): destabilize the protein in a dose-dependent manner
Fold improvement in NDM-1 inhibition, light vs dark (NDM-1 [4]): no enhancement of potency
Fold improvement in potency, light vs dark (NDM-1 in E. coli NDM-1 [5]): no change in potency
Fold change in Meropenem MIC (E. coli NDM-1 [6]; compound 5 μM, dark): 0 fold
Fold change in Meropenem MIC (E. coli NDM-1 [6]; [15]): 0.66 fold
Fold change in Meropenem MIC (E. coli NDM-1 [6]; compound 10 μM, dark): 0 fold
Fold change in Meropenem MIC (E. coli NDM-1 [6]; [16]): 0.66 fold
Fold change in Meropenem MIC (E. coli NDM-1 [6]; compound 20 μM, dark): 0 fold
Fold change in Meropenem MIC (E. coli NDM-1 [6]; [17]): 1.3 fold
Fold change in Meropenem MIC (E. coli NDM-1 [6]; compound 40 μM, dark): 0.66 fold
Fold change in Meropenem MIC (E. coli NDM-1 [6]; [18]): 2.0 fold
Fold change in Meropenem MIC (E. coli NDM-1 [6]; compound 80 μM, dark): 2.6 fold
Fold change in Meropenem MIC (E. coli NDM-1 [6]; [19]): 6.6 fold
Fold change in Meropenem MIC (E. coli NDM-1 [6]; compound 160 μM, dark): 35 fold
Fold change in Meropenem MIC (E. coli NDM-1 [6]; [20]): 43 fold
LD50 (HCT116; HCT116, 24 h): > 50 µM
LD50 (HCT116; HCT116, 48 h): > 50 µM
LD50 (HEK293T; 24 h): > 50 µM
LD50 (HEK293T; 48 h): > 50 µM
LD50 (HaCaT; 24 h): > 50 µM
LD50 (HaCaT; 48 h): > 50 µM
LD50 (HeLa; 24 h): > 50 µM
LD50 (HeLa; 48 h): > 50 µM
LD50 (HepG2; HepG2, 24 h): > 50 µM
LD50 (HepG2; HepG2, 48 h): > 50 µM
LD50 (RAW264.7; 24 h): > 50 µM
LD50 (RAW264.7; 48 h): > 50 µM
LD50 (hTERT RPE-1; RPE1, 24 h): > 50 µM
LD50 (hTERT RPE-1; RPE1, 48 h): > 50 µM
Cytotoxicity (no cytotoxicity up to) [7]: > 50 µM
IC50 (NDM-1 in E. coli NDM-1 [8]; IC50(dark), dark): 13.2 µM and 13 µM
IC50 (NDM-1 in E. coli NDM-1 [8]; IC50(light), light 450 nm, 60 J cm^-2): 11.1 µM
Kd (NDM-1 [9]): 35 µM
ΔTm at 4 µM (NDM-1 [9]; [21]): -0.6 °C
ΔTm at 16 µM (NDM-1 [9]; [21]): -3.4 °C
ΔTm at 63 µM (NDM-1 [9]; [21]): -8.8 °C
IC50 (NDM-1 [10]; IC50(dark), dark): 3.2 ± 0.08 µM
IC50 (NDM-1 [10]; IC50(light), light 450 nm, 20 J cm^-2): 3.1 µM
chromatographic logD [11]: -1.32
Inhibition of HDAC1 (HDAC1): do not inhibit

[Ru(2,2'-bipyridine)2(1-(4-(3-aminophenyl)pyridine-2,6-dicarboxylic acid)-imidazo[4,5,f][1,10]phenanthroline)](PF6)2 [Ru1]
Degradation of NDM-1 vs BSA (band intensity) (NDM-1 [12]; dark): Both proteins were unaffected
Degradation of NDM-1 vs BSA (band intensity) (NDM-1 [12]; light 450 nm, 20 J cm^-2): only NDM-1 was selectively modified and degraded; also recorded: Selective degradation of NDM-1 over BSA
Modification of NDM-1 (intact mass) (NDM-1 [13]; 100 equiv, without irradiation): no change
Modification of NDM-1 (intact mass) (NDM-1 [13]; one equivalent, light 450 nm, 20 J cm^-2): considerable modification to the protein
K d,app from DSF (ΔT vs concentration) (NDM-1 [3]; apparent Kd): 7.4 µM
Change in melting temperature (ΔT) of NDM-1 (NDM-1 [3]; compound 4 μM): –3.9 °C
Change in melting temperature (ΔT) of NDM-1 (NDM-1 [3]; compound 16 μM): –6.8 °C
Change in melting temperature (ΔT) of NDM-1 (NDM-1 [3]; compound 63 μM): –13 °C
Effect on melting temperature of NDM-1 (NDM-1 [3]): destabilize the protein in a dose-dependent manner
Fold improvement in potency, light vs dark (NDM-1 in E. coli NDM-1 [5]): 30 fold
MIC (E. coli empty [14]): >160 µM
MIC (E. coli NDM-1 [6]; E. coli NDM-1, dark and light samples equivalent): >160 µM
Fold change in Meropenem MIC (E. coli NDM-1 [6]; compound 5 μM, dark): 0 fold
Fold change in Meropenem MIC (E. coli NDM-1 [6]; [15]): 0.66 fold
Fold change in Meropenem MIC (E. coli NDM-1 [6]; compound 10 μM, dark): 0 fold
Fold change in Meropenem MIC (E. coli NDM-1 [6]; [16]): 0.66 fold
Fold change in Meropenem MIC (E. coli NDM-1 [6]; compound 20 μM, dark): 0.66 fold
Fold change in Meropenem MIC (E. coli NDM-1 [6]; [17]): 2.0 fold
Fold change in Meropenem MIC (E. coli NDM-1 [6]; compound 40 μM, dark): 0.66 fold
Fold change in Meropenem MIC (E. coli NDM-1 [6]; [18]): 5.3 fold
Fold change in Meropenem MIC (E. coli NDM-1 [6]; compound 80 μM, dark): 2.6 fold
Fold change in Meropenem MIC (E. coli NDM-1 [6]; [19]): 19 fold
Fold change in Meropenem MIC (E. coli NDM-1 [6]; compound 160 μM, dark): 9 fold and 9.3 fold
Fold change in Meropenem MIC (E. coli NDM-1 [6]; [20]): 53 fold
Inhibition of HDAC1 (HDAC1): do not inhibit; also recorded: no off-target inhibition
